Measurements as given in patent US9221766B2, “Compounds as diacylglycerol acyltransferase inhibitors” (GlaxoSmithKline LLC, priority 2012, dated 2015).

Biological target: T1, Human DGAT1 (Homo sapiens, UniProt O75907)
T1 construct: made in house; host or cells: Sf9 insect cells (baculovirus); microsomes used as enzyme
T1 sequence (O75907 1-488): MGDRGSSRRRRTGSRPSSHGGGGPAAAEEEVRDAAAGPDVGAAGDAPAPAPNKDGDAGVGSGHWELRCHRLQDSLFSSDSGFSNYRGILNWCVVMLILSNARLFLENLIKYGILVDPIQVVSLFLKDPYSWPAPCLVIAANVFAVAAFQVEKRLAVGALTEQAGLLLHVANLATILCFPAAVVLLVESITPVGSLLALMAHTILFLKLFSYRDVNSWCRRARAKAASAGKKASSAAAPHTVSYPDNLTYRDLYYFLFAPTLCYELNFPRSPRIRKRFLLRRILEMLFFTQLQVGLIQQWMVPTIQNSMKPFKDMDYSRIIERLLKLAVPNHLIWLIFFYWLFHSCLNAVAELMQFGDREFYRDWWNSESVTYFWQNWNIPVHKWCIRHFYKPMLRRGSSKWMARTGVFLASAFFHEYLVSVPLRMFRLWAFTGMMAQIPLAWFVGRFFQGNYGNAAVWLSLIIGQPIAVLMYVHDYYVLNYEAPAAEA
Experiment: human DGAT1 lipid extraction (LE) assay, inhibition of triacylglycerol product formation
Type: biochemical
Conditions: human DGAT1 microsomes from Sf9 cells, read-out: hDGAT LE IC50
Description: Human DGAT1 was expressed in Sf9 insect cells using a baculovirus expression system. Microsomes were prepared and used as enzyme for in vitro inhibition testing in either of two formats measuring production of coenzyme A or tridecanoylglycerol product, respectively. All steps were performed at 21-23° C. All data for DGAT1 inhibition by test compounds were collected under conditions where product formation was linear with reaction time.
For inhibition of triacylglycerol product formation, 11 uL reactions were run in white Polyplate-384 (PerkinElmer6007300) starting with a 30 minute pre-reaction incubation of 5 uL of 2.2× enzyme and 1 uL of 100% DMSO containing test compound or control compound, {4-[4-(4-amino-7,7-dimethyl-7H-pyrimido[4,5-b][1,4]oxazin-6-yl)phenyl]cyclohexyl}acetic acid. Some assays were performed with inclusion of didecanoylglycerol in the pre-reaction incubation of test compounds and enzyme. Reactions were initiated after 30 minute pre-reaction incubation via addition of 5 uL of 2.2× substrate. Final reaction conditions consisted of 50 mM HEPES pH 7.5, 2 mM MgCl2, 1 mM CHAPS, 25 uM didecanoylglycerol, 0.5 uM decanoyl-CoA, 0.3 nCi/uL [^14C-]decanoyl-CoA or 0.5 nCi/uL [^3H]-decanoyl-CoA, 0.05-4 ug/mL microsomal protein, and 1% DMSO. Following 60 minute reaction incubation, reactions were stopped with 40 uL of 45% isopropanol and 50 mM sodium carbonate in water and mixed. Extraction of tridecanoylglycerol product was accomplished via addition of 30 uL Microscint-E (Perkin Elmer) and 2 hours of incubation (sealed). Plates were read on a Microbeta Microplate reader Inhibition was normalized to controls containing DMSO or 10 uM {4-[4-(4-amino-7,7-dimethyl-7H-pyrimido[4,5-b][1,4]oxazin-6-yl)phenyl]cyclohexyl}acetic acid. IC50s were fitted using GraphPad Prism to a sigmoidal dose response.

| IC50 [nM] | Compound |
| --- | --- |
| 100 to 500 | CCC1(CC(=O)O)CCc2cc(-c3ccc(Nc4ccc(C(F)(F)F)nc4)cn3)ccc2C1=O (single isomer, unassigned) [Example 5, 2-(2-ethyl-1-oxo-6-(5-(6-(trifluoromethyl)pyridin-3-ylamino)pyridin-2-yl)-1,2,3,4-tetrahydronaphthalen-2-yl)acetic acid] |
| 100 to 500 | Cc1ccc(Nc2ccc(-c3ccc4c(c3)CCC(CC(=O)O)(CC(F)(F)F)C4=O)nc2)cc1 (single isomer, unassigned) [Example 9, 2-(1-oxo-6-(5-(p-tolylamino)pyridin-2-yl)-2-(2,2,2-trifluoroethyl)-1,2,3,4-tetrahydronaphthalen-2-yl)acetic acid] |
| ≤ 100 | O=C(O)CC1(CC(F)(F)F)CCc2cc(-c3ccc(Nc4ccc(F)c(F)c4)cn3)ccc2C1=O (single isomer, unassigned) [Example 10, 2-(6-(5-(3,4-difluorophenylamino)pyridin-2-yl)-1-oxo-2-(2,2,2-trifluoroethyl)-1,2,3,4-tetrahydronaphthalen-2-yl)acetic acid] |
| 100 to 500 | O=C(O)CC1(CC(F)(F)F)CCc2cc(-c3ccc(Nc4cccc(Cl)c4)cn3)ccc2C1=O (single isomer, unassigned) [Example 11, 2-(6-(5-(3-chlorophenylamino)pyridin-2-yl)-1-oxo-2-(2,2,2-trifluoroethyl)-1,2,3,4-tetrahydronaphthalen-2-yl)acetic acid] |
| 500 to 10000 | O=C(O)CC1(CC(F)(F)F)CCc2cc(-c3cnc(Nc4ccc(C(F)(F)F)nc4)cn3)ccc2C1=O (single isomer, unassigned) [Example 15, 2-(1-oxo-2-(2,2,2-trifluoroethyl)-6-(5-(6-(trifluoromethyl)pyridin-3-ylamino)pyrazin-2-yl)-1,2,3,4-tetrahydronaphthalen-2-yl)acetic acid] |
| 500 to 10000 | O=C(O)CC1(CC(F)(F)F)CCc2cc(-c3cnc(Nc4ccc5c(c4)OCO5)cn3)ccc2C1=O (single isomer, unassigned) [Example 20, 2-(6-(5-(benzo[d][1,3]dioxol-5-ylamino)pyrazin-2-yl)-1-oxo-2-(2,2,2-trifluoroethyl)-1,2,3,4-tetrahydronaphthalen-2-yl)acetic acid] |

The next lines start with the compound.

| Compound | IC50 [nM] |
| --- | --- |
| O=C(O)CC1(CC(F)(F)F)CCc2cc(-c3ccc(Nc4ccc(C(F)(F)F)nc4)cn3)ccc2C1=O (single isomer, unassigned) [Example 1, 2-(1-Oxo-2-(2,2,2-trifluoroethyl)-6-(5-(6-(trifluoromethyl)pyridin-3-ylamino)pyridin-2-yl)-1,2,3,4-tetrahydronaphthalen-2-yl)acetic acid] | ≤ 100 |
| O=C(O)CC1(CC(F)(F)F)CCc2cc(-c3ccc(Nc4ccc(Cl)cc4)cn3)ccc2C1=O (single isomer, unassigned) [Example 2, 2-(6-(5-(4-Chlorophenylamino)pyridin-2-yl)-1-oxo-2-(2,2,2-trifluoroethyl)-1,2,3,4-tetrahydronaphthalen-2-yl)acetic acid] | ≤ 100 |
| CC1(CC(=O)O)CCc2cc(-c3ccc(Nc4ccc(C(F)(F)F)nc4)cn3)ccc2C1=O (single isomer, unassigned) [Example 3, 2-(2-Methyl-1-oxo-6-(5-(6-(trifluoromethyl)pyridin-3-ylamino)pyridin-2-yl)-1,2,3,4-tetrahydronaphthalen-2-yl)acetic acid] | 500 to 10000 |
| CCC1(CC(=O)O)CCc2cc(-c3ccc(Nc4ccc(C(F)(F)F)nc4)cn3)ccc2C1=O (single isomer, unassigned) [Example 4, 2-(2-Ethyl-1-oxo-6-(5-(6-(trifluoromethyl)pyridin-3-ylamino)pyridin-2-yl)-1,2,3,4-tetrahydronaphthalen-2-yl)acetic acid] | ≤ 100 |
| O=C(O)CC1(CC(F)(F)F)CCc2cc(-c3ccc(Nc4ccc(Cl)cc4)cn3)ccc2C1=O (single isomer, unassigned) [Example 6, 2-(6-(5-(4-chlorophenylamino)pyridin-2-yl)-1-oxo-2-(2,2,2-trifluoroethyl)-1,2,3,4-tetrahydronaphthalen-2-yl)acetic acid] | ≤ 100 |
| O=C(O)CC1(CC(F)(F)F)CCc2cc(-c3ccc(Nc4ccc(Cl)cn4)cn3)ccc2C1=O (single isomer, unassigned) [Example 7, 2-(6-(5-(5-chloropyridin-2-ylamino)pyridin-2-yl)-1-oxo-2-(2,2,2-trifluoroethyl)-1,2,3,4-tetrahydronaphthalen-2-yl)acetic acid] | ≤ 100 |
| O=C(O)CC1(CC(F)(F)F)CCc2cc(-c3ccc(Nc4ccc(Cl)cn4)cn3)ccc2C1=O (single isomer, unassigned) [Example 8, 2-(6-(5-(5-chloropyridin-2-ylamino)pyridin-2-yl)-1-oxo-2-(2,2,2-trifluoroethyl)-1,2,3,4-tetrahydronaphthalen-2-yl)acetic acid] | ≤ 100 |
| Cc1ccc(Nc2ccc(-c3ccc4c(c3)CCC(CC(=O)O)(CC(F)(F)F)C4=O)nc2)nc1 (single isomer, unassigned) [Example 12, 2-(6-(5-(5-methylpyridin-2-ylamino)pyridin-2-yl)-1-oxo-2-(2,2,2-trifluoroethyl)-1,2,3,4-tetrahydronaphthalen-2-yl)acetic acid] | ≤ 100 |
| Cc1ccc(Nc2ccc(-c3ccc4c(c3)CCC(CC(=O)O)(CC(F)(F)F)C4=O)nc2)nc1 (single isomer, unassigned) [Example 13, 2-(6-(5-(5-methylpyridin-2-ylamino)pyridin-2-yl)-1-oxo-2-(2,2,2-trifluoroethyl)-1,2,3,4-tetrahydronaphthalen-2-yl)acetic acid] | 100 to 500 |
| O=C(O)CC1(CC(F)(F)F)CCc2cc(-c3cnc(Nc4ccc(C(F)(F)F)nc4)cn3)ccc2C1=O (single isomer, unassigned) [Example 14, 2-(1-Oxo-2-(2,2,2-trifluoroethyl)-6-(5-(6-(trifluoromethyl)pyridin-3-ylamino)pyrazin-2-yl)-1,2,3,4-tetrahydro-naphthalen-2-yl)acetic acid] | ≤ 100 |
| Cc1ccc(Nc2cnc(-c3ccc4c(c3)CCC(CC(=O)O)(CC(F)(F)F)C4=O)cn2)nc1 (single isomer, unassigned) [Example 16, 2-(6-(5-(5-methylpyridin-2-ylamino)pyrazin-2-yl)-1-oxo-2-(2,2,2-trifluoroethyl)-1,2,3,4-tetrahydronaphthalen-2-yl)acetic acid] | 100 to 500 |
| O=C(O)CC1(CC(F)(F)F)CCc2cc(-c3cnc(Nc4ccc(Cl)cn4)cn3)ccc2C1=O (single isomer, unassigned) [Example 17, 2-(6-(5-(5-chloropyridin-2-ylamino)pyrazin-2-yl)-1-oxo-2-(2,2,2-trifluoroethyl)-1,2,3,4-tetrahydronaphthalen-2-yl)acetic acid] | 100 to 500 |
| O=C(O)CC1(CC(F)(F)F)CCc2cc(-c3cnc(Nc4ccc(Cl)cn4)cn3)ccc2C1=O (single isomer, unassigned) [Example 18, 2-(6-(5-(5-chloropyridin-2-ylamino)pyrazin-2-yl)-1-oxo-2-(2,2,2-trifluoroethyl)-1,2,3,4-tetrahydronaphthalen-2-yl)acetic acid] | 100 to 500 |
| O=C(O)CC1(CC(F)(F)F)CCc2cc(-c3cnc(Nc4ccc5c(c4)OCO5)cn3)ccc2C1=O (single isomer, unassigned) [Example 19, 2-(6-(5-(benzo[d][1,3]dioxol-5-ylamino)pyrazin-2-yl)-1-oxo-2-(2,2,2-trifluoroethyl)-1,2,3,4-tetrahydronaphthalen-2-yl)acetic acid] | 100 to 500 |
